Source: the supplement of paper PMC11962398

Experiments:
[1] = compound: T1, C[C@H]1CNCCN1c1nccc(-c2noc3c2CCC[C@@]32CCCc3sc(N)c(C#N)c32)n1 [BI-2493]; conditions: 5 days
Protocol: (§1)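 PRISM pooled barcoded cancer cell line viability screen (Broad Institute) with BI-2493 at 8 doses in threefold dilutions from 0.00457 to 10 µmol/L, 5-day treatment; curves fitted per cell line. IC50 is undefined (placeholder) for resistant lines. AUC is capped at 1, and sensitivity is reported as 1 − AUC.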

[2] = compound: T1, BI-2493; experiment: 1 - AUC of viability dose-response curve (sensitivity) (fraction); higher = more sensitive; conditions: 5 days
Protocol: as §1

Test System	IC50 of cell viability [1] [µM]	1 - AUC of viability dose-response curve [2]
SNU719_STOMACH	9.46	0.00913
SNU761_LIVER	2.4	0.297
SNU840_OVARY	7.7	0.0623
SNU869_BILIARY_TRACT	2.14	0.279
SNU886_LIVER	5.03	0.211
SNU899_UPPER_AERODIGESTIVE_TRACT	4.32	0.157
SNU1041_UPPER_AERODIGESTIVE_TRACT	9.15	0.019
SNU1066_UPPER_AERODIGESTIVE_TRACT	6.03	0.0923
SNU1076_UPPER_AERODIGESTIVE_TRACT	3.84	0.104
SNU1077_ENDOMETRIUM	8.81	0.0934
SNU1105_CENTRAL_NERVOUS_SYSTEM	4.12	0.157
SNU1196_BILIARY_TRACT	0.361	0.496
SNU1214_UPPER_AERODIGESTIVE_TRACT	0.175	0.482
SNU1544_LARGE_INTESTINE	2.68	0.203
SNU2372_BREAST	6.37	0.0682
SNUC2A_LARGE_INTESTINE	> 10	0.0882
SNUC4_LARGE_INTESTINE	5.72	0.162
SQ1_LUNG	3.68	0.153
SR786_HAEMATOPOIETIC_AND_LYMPHOID_TISSUE	7.44	0.0498

Test System	IC50 of cell viability [1] [µM]	1 - AUC of viability dose-response curve [2]
SSP25_BILIARY_TRACT	8.5	0.11
STM9101_SOFT_TISSUE	> 10	0.0387
SUDHL1_HAEMATOPOIETIC_AND_LYMPHOID_TISSUE	4.67	0.14
SUDHL8_HAEMATOPOIETIC_AND_LYMPHOID_TISSUE	9.1	0.0165
SUIT2_PANCREAS	4.96	0.123
SUM149PT_BREAST	3.94	0.168
SUM159PT_BREAST	7.31	0.064
SUPB15_HAEMATOPOIETIC_AND_LYMPHOID_TISSUE	3.13	0.149
SUPT11_HAEMATOPOIETIC_AND_LYMPHOID_TISSUE	5.2	0.0681
SUSA_TESTIS	1.09	0.243
SW13_ADRENAL_CORTEX	4.77	0.0973
SW156_KIDNEY	9.51	0.0358
SW579_THYROID	3.16	0.133
SW620_LARGE_INTESTINE	1.1	0.313
SW626_LARGE_INTESTINE	4.08	0.124
SW756_CERVIX	5.46	0.14
SW780_URINARY_TRACT	3.46	0.22
SW837_LARGE_INTESTINE	5.95	0.0901
SW900_LUNG	8.99	0.115

Test System	IC50 of cell viability [1] [µM]	1 - AUC of viability dose-response curve [2]
SW948_LARGE_INTESTINE	7.49	0.167
SW954_CERVIX	3.72	0.117
SW1088_CENTRAL_NERVOUS_SYSTEM	8.8	0.159
SW1116_LARGE_INTESTINE	2.37	0.214
SW1353_BONE	> 10	0.032
SW1463_LARGE_INTESTINE	4.74	0.177
SW1573_LUNG	7.72	0.108
SW1710_URINARY_TRACT	7.21	0.0685
SW1783_CENTRAL_NERVOUS_SYSTEM	7.49	0.0474
SW1990_PANCREAS	0.926	0.324
T3M5_THYROID	4.56	0.162
T3M10_LUNG	5.96	0.0884
T24_URINARY_TRACT	> 10	0.047
T47D_BREAST	4.07	0.0937
TALL1_HAEMATOPOIETIC_AND_LYMPHOID_TISSUE	6.69	0.0755
TANOUE_HAEMATOPOIETIC_AND_LYMPHOID_TISSUE	9.36	0.0128
TASK1_CENTRAL_NERVOUS_SYSTEM	7.76	0.0438
TC32_BONE	8.86	0.0484
TC71_BONE	9.44	0.0115
